Like-named read-outs stand apart in the source and are kept apart here.
What was measured:
[1] = system: GM-CSFR/JAK2/STAT5 pathway in CSTF-1 cells; experiment: CSTF-1 cell-based reporter assay (beta-lactamase, GM-CSF stimulated); design: species or system human; conditions: GM-CSF at 2 ng/mL, 4 hours, read-out: Cell Assay: CS TF-1 reporter assay IC50
Method: CSTF-1 Cell-Based Reporter Assay
CSTF-1 cells are derived from the human erythroleukemia cell line that is growth dependent on GM-CSF and has an intact GM-CSFR/JAK2/STAT5 pathway. The cell line contains stably integrated beta-lactamase reporter gene under the control of the […] (irf 1) response element recognized by the activated transcription factor STATS. csTF-1 cells (Invitrogen K1219) were washed with assay media (97% OPTIMEM/ 0.5% dialyzed FBS/0.1 mM NEAA/1 mM Na pyr/P/S) and seeded in the same media at 5×10^5 cell/mL in T150 flask. After 16 hour incubation, cells were seeded at 2×10^5 cell/well in 50 μl volume, into Costar, clear bottom, 96-well assay plates. Serial dilutions of compounds were added to the plates with final DMSO concentration at 0.5% and GM-CSF at 2 ng/mL and the plates were then incubated at […] and 5% CO2 for 4 hours. The plates were brought to room temperature before adding Substrate Mixture according to manufacturer's protocol (Invitrogen, Catalog #K1085). The assay plates containing the substrate mixture were incubated in the dark at room temperature for 2 hours. Blue and green fluorescence was measured with excitation at 409 nm and emission at 460 nm (for blue) and excitation at 409 nm and emission at 530 nm (for green) using Spectra Max Gemini EM.

JAK2 = molecular target: T1, JAK2 (Homo sapiens, UniProt O60674); experiment: Competition binding assay, JAK2
T1 construct: made in house
T1 sequence (O60674 whole entry): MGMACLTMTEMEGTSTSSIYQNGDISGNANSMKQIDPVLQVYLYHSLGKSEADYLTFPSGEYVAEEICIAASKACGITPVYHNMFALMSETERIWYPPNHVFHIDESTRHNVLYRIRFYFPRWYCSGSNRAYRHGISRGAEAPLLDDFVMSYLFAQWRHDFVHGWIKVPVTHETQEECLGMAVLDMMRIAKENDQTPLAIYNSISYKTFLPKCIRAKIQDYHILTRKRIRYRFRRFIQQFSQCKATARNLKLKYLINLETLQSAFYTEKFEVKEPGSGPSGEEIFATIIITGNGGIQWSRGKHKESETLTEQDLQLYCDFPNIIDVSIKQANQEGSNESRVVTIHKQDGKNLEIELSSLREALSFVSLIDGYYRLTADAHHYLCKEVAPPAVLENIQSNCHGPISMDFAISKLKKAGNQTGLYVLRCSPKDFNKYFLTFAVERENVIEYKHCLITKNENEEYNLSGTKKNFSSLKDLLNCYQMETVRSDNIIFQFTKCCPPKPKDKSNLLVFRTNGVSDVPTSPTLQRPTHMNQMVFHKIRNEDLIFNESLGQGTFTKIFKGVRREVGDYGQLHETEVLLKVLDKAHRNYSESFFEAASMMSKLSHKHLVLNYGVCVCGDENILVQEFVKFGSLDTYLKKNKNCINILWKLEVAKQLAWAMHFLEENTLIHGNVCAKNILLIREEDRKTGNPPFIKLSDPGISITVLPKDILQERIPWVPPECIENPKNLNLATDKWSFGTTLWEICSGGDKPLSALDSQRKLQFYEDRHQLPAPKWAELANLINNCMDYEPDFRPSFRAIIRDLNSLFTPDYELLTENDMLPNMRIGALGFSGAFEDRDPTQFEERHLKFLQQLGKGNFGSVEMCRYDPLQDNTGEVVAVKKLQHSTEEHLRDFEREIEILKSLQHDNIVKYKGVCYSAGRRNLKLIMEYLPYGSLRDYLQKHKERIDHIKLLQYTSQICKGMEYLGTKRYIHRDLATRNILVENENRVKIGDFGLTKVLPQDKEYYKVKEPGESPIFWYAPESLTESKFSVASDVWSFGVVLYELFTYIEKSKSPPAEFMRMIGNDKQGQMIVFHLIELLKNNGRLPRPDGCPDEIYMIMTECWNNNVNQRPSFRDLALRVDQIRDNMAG
Text: (§1) Competition Binding Assay to Determine Binding Constants (Kd) of the Compounds Against JAK Kinases
(§2) Competition binding assays used herein were developed, validated and performed as described in Fabian et al., Nature Biotechnology 2005, 23,329-336. Kinases were produced as fusions to T7 phage (See, Fabian et al. or WO04/015142) or alternatively, the kinases were expressed in HEK-293 cells and subsequently tagged with DNA for PCR detection (See, WO08/005310). For the binding assays, streptavidin-coated magnetic beads were treated with biotinylated affinity ligands for 30 min at rt to generate affinity resins. The liganded beads were blocked with excess biotin and washed with blocking buffer (SeaBlock (Pierce), 1% BSA, 0.05% Tween 20, 1 mM DTT) to remove unbound ligand and to reduce non-specific binding. Binding reactions were assembled by combining kinase, liganded affinity beads, and test compounds in 1× binding buffer (20% SeaBlock, 0.17×PBS, 0.05% Tween 20, 6 mM DTT). Test compounds were prepared as 100× stocks in DMSO and rapidly diluted into the aqueous environment. DMSO was added to control assays lacking a test compound. Primary screen interactions were performed in polypropylene 384-well plates in a final volume of 34 μL, while Kd determinations were performed in polystyrene 96-well plates in a final volume of 135 μL. The assay plates were incubated at room temperature with shaking for 1 hour, long enough for binding reactions to reach equilibrium, and the affinity beads were washed extensively with wash buffer (1× PBS, 0.05% Tween 20) to remove unbound protein. The beads were then resuspended in elution buffer (1× PBS, 0.05% Tween 20, 2 μM non-biotinylated affinity ligand) and incubated at room temperature with shaking for 30 min. The kinase concentration in the eluates was measured by quantitative PCR. Each kinase was tested individually against each compound. Kds were determined using eleven serial threefold dilutions. A selectivity score, which is a quantitative measure of selectivity of a compound against a panel of enzymes, may be calculated for a compound by dividing the number of enzymes for which a compound meets a set criteria, (for example, a binding constant of 100 nM or less), by the total number of enzymes tested.

JAK3 = molecular target: T2, JAK3 (Homo sapiens, UniProt P52333); experiment: Competition binding assay, JAK3
T2 construct: made in house
T2 sequence (P52333 1-1124): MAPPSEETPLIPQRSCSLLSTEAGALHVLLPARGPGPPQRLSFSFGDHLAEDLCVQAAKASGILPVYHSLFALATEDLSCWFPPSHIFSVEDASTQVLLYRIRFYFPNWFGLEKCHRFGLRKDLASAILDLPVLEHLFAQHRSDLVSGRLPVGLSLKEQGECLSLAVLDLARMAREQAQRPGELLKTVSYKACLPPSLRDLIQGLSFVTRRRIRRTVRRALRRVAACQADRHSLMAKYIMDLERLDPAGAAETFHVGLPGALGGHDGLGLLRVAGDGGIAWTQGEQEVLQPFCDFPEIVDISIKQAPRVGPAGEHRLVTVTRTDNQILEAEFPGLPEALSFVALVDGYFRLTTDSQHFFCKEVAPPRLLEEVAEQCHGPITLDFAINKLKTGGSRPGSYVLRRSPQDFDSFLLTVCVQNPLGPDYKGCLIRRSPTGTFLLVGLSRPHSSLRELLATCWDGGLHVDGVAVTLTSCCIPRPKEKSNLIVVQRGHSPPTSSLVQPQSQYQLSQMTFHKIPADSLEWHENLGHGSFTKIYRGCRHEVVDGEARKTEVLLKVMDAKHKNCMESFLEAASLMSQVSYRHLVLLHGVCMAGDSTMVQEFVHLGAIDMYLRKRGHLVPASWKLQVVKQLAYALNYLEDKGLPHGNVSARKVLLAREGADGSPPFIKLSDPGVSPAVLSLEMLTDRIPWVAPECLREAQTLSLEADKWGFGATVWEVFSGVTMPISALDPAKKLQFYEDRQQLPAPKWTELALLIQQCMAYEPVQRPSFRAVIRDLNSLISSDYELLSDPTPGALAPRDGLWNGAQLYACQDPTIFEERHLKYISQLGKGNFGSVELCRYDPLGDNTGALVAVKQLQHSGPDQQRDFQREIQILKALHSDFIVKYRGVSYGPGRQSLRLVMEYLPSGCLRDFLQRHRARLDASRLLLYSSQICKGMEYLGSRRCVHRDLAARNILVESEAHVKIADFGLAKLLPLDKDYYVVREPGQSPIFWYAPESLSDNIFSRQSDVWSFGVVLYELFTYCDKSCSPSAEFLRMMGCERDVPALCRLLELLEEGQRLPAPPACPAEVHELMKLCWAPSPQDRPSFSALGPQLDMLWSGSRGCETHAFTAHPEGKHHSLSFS
Text: as §1, §2

TYK2 = molecular target: T3, TYK2 (Homo sapiens, UniProt P29597); experiment: Competition binding assay, TYK2
T3 construct: made in house
T3 sequence (P29597 whole entry): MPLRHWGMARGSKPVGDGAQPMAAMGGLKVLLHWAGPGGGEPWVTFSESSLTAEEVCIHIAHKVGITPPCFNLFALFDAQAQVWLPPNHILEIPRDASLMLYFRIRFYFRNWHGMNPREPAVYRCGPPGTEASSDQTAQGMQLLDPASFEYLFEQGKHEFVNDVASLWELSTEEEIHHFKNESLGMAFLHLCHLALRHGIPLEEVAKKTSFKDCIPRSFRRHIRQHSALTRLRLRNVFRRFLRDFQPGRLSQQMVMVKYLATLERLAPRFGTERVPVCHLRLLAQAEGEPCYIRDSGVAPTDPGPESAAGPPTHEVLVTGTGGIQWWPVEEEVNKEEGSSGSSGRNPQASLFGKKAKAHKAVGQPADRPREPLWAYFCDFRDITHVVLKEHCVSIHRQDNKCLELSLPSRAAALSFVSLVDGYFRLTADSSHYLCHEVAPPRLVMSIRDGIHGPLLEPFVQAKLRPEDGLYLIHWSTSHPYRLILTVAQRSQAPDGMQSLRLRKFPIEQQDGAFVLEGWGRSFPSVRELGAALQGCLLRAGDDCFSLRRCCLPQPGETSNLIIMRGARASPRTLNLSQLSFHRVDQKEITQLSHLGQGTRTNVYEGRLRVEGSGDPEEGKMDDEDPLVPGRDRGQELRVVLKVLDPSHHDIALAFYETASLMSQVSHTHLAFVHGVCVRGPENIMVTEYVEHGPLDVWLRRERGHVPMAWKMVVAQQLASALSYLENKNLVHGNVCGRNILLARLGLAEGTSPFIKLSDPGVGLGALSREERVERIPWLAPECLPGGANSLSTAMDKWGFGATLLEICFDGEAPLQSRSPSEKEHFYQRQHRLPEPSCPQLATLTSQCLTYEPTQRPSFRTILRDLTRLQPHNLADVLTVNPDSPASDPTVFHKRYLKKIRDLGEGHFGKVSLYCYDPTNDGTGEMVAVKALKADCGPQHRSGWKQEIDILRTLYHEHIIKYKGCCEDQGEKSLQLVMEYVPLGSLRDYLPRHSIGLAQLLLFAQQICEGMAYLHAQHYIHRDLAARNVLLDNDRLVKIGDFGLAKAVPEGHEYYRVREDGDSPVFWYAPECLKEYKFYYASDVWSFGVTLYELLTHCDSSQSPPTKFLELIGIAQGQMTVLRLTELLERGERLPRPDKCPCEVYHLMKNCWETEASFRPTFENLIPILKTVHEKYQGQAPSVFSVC
Text: as §1, §2

[2] = system: distinct kinases tested excluding mutant variants, typically 359 or 386 kinases; experiment: Kinase selectivity score from competition binding panel; conditions: compound at 10 μM; fraction of kinases with inhibition of 90% or greater
Method: as §2

Compound | IC50 [1] [nM] | Kd (JAK2) [nM] | Kd (JAK3) [nM] | Kd (TYK2) [nM] | S-Score: S(10) at 10 μM [2] | IC50 ([1]; Homo sapiens) [nM]
(4-(1H-pyrazol-3-ylamino)-7-methylthieno[3,2-d]pyrimidin-2-yl)(4-fluorophenyl)methanone [Example 24] | > 500 | 1 to 10 | > 100 | > 100 | A (A ≦ 0.3) | –
Cc1cc(Nc2nc(C(=O)c3ccc(F)cc3)nc3scc(C)c23)n[nH]1 [Example 10, (4-fluorophenyl)(5-methyl-4-(5-methyl-1H-pyrazol-3-ylamino)thieno[2,3-d]pyrimidin-2-yl)methanone] | – | > 10 | > 100 | > 100 | A (A ≦ 0.3) | > 500
Cc1cc(Nc2nc(C(O)c3ccc(F)cc3)nc3sccc23)n[nH]1 (racemic) [Example 4, (R,S)-(4-fluorophenyl)(4-(5-methyl-1H-pyrazol-3-ylamino)thieno[2,3-d]pyrimidin-2-yl)methanol] | – | ≤ 1 | ≤ 10 | ≤ 10 | B (0.3 < B ≦ 0.4) | ≤ 100
Cc1cc(Nc2nc(C(F)(F)c3ccc(F)cc3)nc3sc(C)cc23)n[nH]1 [Example 14, 2-(difluoro(4-fluorophenyl)methyl)-6-methyl-N-(5-methyl-1H-pyrazol-3-yl)thieno[2,3-d]pyrimidin-4-amine] | – | ≤ 1 | 10 to 100 | ≤ 10 | A (A ≦ 0.3) | ≤ 100

— patent US20130317045A1, “THIENOPYRIDINE AND THIENOPYRIMIDINE COMPOUNDS AND METHODS OF USE THEREOF” (AMBIT BIOSCIENCES CORPORATION, priority 2010, published 2013)
